US9695155B2, “Herbicidal substituted pyrimidinyloxy benzene compounds” (E. I. DU PONT DE NEMOURS AND COMPANY, priority 2013, dated 2017)

What was measured:
velvetleaf = assay: Test C postemergence; format: in vivo, Abutilon theophrasti
Outline: (§1)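 Whole-plant greenhouse test with surfactant-containing solvent formulation, applied preemergence to sown loam–sand pots or postemergence to 2–18 cm plants. Scored by eye 13 to 15 days on, 0–100 scale.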

blackgrass = assay: Test C postemergence; format: in vivo, Alopecurus myosuroides
Outline: as §1

ragweed = assay: Test C postemergence; format: in vivo, Ambrosia elatior
Outline: as §1

wheat = assay: Test A postemergence; format: in vivo, Triticum aestivum; conditions: 0 to 100 scale where 0 is no effect and 100 is complete control
Outline: (§2)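 Visual injury scored 0–100 (100 = complete control) against untreated controls about 10 days after treatment in a greenhouse. Test chemicals, formulated with surfactant in non-phytotoxic solvent, were sprayed on soil preemergence or on 2-10 cm, one- to two-leaf plants postemergence.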

lambsquarters = assay: Test C postemergence; format: in vivo, Chenopodium album
Outline: as §1

galium = assay: Test C postemergence; format: in vivo, Galium aparine
Outline: as §1

barnyardgrass [1] = assay: Test A preemergence; format: in vivo, Echinochloa crus-galli
Outline: as §2

giant foxtail = assay: Test C postemergence; format: in vivo, Setaria faberii
Outline: as §1

barnyardgrass [2] = assay: Test A postemergence; format: in vivo, Echinochloa crus-galli
Outline: as §2

soybean = assay: Test C postemergence; format: in vivo, Glycine max
Outline: as §1

corn = assay: Test A preemergence; format: in vivo, Zea mays
Outline: as §2

[3] = 16 g ai/ha, postemergence, 0 is no effect, 100 is complete control
[4] = 31 g ai/ha, postemergence, visual rating, scale 0 to 100 (0 no effect, 100 complete control), 13 to 15 days
[5] = 125 g ai/ha, postemergence, visual rating, scale 0 to 100 (0 no effect, 100 complete control)
[6] = Postemergence, 62 g ai/ha, scale 0 to 100 (0 no effect, 100 complete control), 13 to 15 days
[7] = 500 g ai/ha, 0 to 100 scale where 0 is no effect and 100 is complete control

For `FC(F)c1cnn(-c2ccccc2Oc2ncc(Cl)cn2)c1` [Compound 80, 5-chloro-2-[2-[4-(difluoromethyl)-1H-pyrazol-1-yl]phenoxy]pyrimidine], the pest or weed control at 125 g/ha (velvetleaf; Abutilon theophrasti, post-emergence, 125 g ai/ha, postemergence, read-out: Plant response rating (0 to 100), Velvetleaf) was 75%, the pest or weed control at 31 g/ha (velvetleaf; Abutilon theophrasti, post-emergence, Postemergence, 31 g ai/ha, scale 0 to 100 (0 no effect, 100 complete control), 13 to 15 days, read-out: Plant response rating, Velvetleaf) was 45% and the pest or weed control at 62 g/ha (velvetleaf; Abutilon theophrasti, post-emergence, Postemergence, 62 g ai/ha, scale 0 to 100 (0 no effect, 100 complete control), read-out: Plant response rating, Velvetleaf) was 65%. For the same compound, the pest or weed control at 16 g/ha (blackgrass; Alopecurus myosuroides, post-emergence, 16 g ai/ha, postemergence, visual rating, scale 0 to 100 (0 no effect, 100 complete control), 13 to 15 days, read-out: Blackgrass plant response rating) was 0%, the pest or weed control at 125 g/ha (blackgrass; Alopecurus myosuroides, post-emergence, 125 g ai/ha, postemergence, read-out: Plant response rating (0 to 100), Blackgrass) was 40% and the pest or weed control at 31 g/ha (blackgrass; Alopecurus myosuroides, post-emergence, Postemergence, 31 g ai/ha, scale 0 to 100 (0 no effect, 100 complete control), 13 to 15 days, read-out: Plant response rating, Blackgrass) was 5%. The pest or weed control at 62 g/ha (blackgrass; Alopecurus myosuroides, post-emergence, Postemergence, 62 g ai/ha, scale 0 to 100 (0 no effect, 100 complete control), read-out: Plant response rating, Blackgrass) was 10%, the pest or weed control at 125 g/ha (ragweed; Ambrosia artemisiifolia, post-emergence, 125 g ai/ha, postemergence, read-out: Plant response rating (0 to 100), Ragweed) was 45% and the pest or weed control at 31 g/ha (ragweed; Ambrosia artemisiifolia, post-emergence, Postemergence, 31 g ai/ha, scale 0 to 100 (0 no effect, 100 complete control), 13 to 15 days, read-out: Plant response rating, Ragweed) was 40%. For the same compound, the pest or weed control at 62 g/ha (ragweed; Ambrosia artemisiifolia, post-emergence, Postemergence, 62 g ai/ha, scale 0 to 100 (0 no effect, 100 complete control), read-out: Plant response rating, Ragweed) was 40%, the plant injury at 125 g/ha (wheat; Triticum aestivum, post-emergence, 240 h, 125 g ai/ha, read-out: Plant response rating, Wheat) was 40% and the plant injury at 500 g/ha (wheat; Triticum aestivum, post-emergence, 240 h, 500 g ai/ha, read-out: Plant response rating, Wheat) was 80%. For the same compound, the pest or weed control at 125 g/ha (lambsquarters; Chenopodium album, post-emergence, 125 g ai/ha, postemergence, read-out: Plant response rating (0 to 100), Lambsquarters) was 55%, the pest or weed control at 31 g/ha (lambsquarters; Chenopodium album, post-emergence, Postemergence, 31 g ai/ha, scale 0 to 100 (0 no effect, 100 complete control), 13 to 15 days, read-out: Plant response rating, Lambsquarters) was 60% and the pest or weed control at 62 g/ha (lambsquarters; Chenopodium album, post-emergence, Postemergence, 62 g ai/ha, scale 0 to 100 (0 no effect, 100 complete control), read-out: Plant response rating, Lambsquarters) was 55%. The pest or weed control at 16 g/ha (galium; Galium, post-emergence, 16 g ai/ha, postemergence, visual rating, scale 0 to 100 (0 no effect, 100 complete control), 13 to 15 days, read-out: Galium plant response rating) was 55%, the pest or weed control at 125 g/ha (galium; Galium, post-emergence, 125 g ai/ha, postemergence, read-out: Plant response rating (0 to 100), Galium) was 95% and the pest or weed control at 31 g/ha (galium; Galium, post-emergence, Postemergence, 31 g ai/ha, scale 0 to 100 (0 no effect, 100 complete control), 13 to 15 days, read-out: Plant response rating, Galium) was 70%. For the same compound, the pest or weed control at 62 g/ha (galium; Galium, post-emergence, Postemergence, 62 g ai/ha, scale 0 to 100 (0 no effect, 100 complete control), read-out: Plant response rating, Galium) was 85%, the pest or weed control at 125 g/ha (barnyardgrass [1]; Echinochloa crus-galli, pre-emergence, 240 h, 125 g ai/ha, 0 to 100 scale where 0 is no effect and 100 is complete control, read-out: Plant response rating, Barnyardgrass) was 60% and the pest or weed control at 500 g/ha (barnyardgrass [1]; Echinochloa crus-galli, pre-emergence, 240 h, 500 g ai/ha, 0 to 100 scale, 0 no effect, 100 complete control, approx. 10 days, read-out: Barnyardgrass plant response rating) was 100%. For the same compound, the pest or weed control at 16 g/ha (giant foxtail; Setaria faberi, post-emergence, 16 g ai/ha, postemergence, visual rating, scale 0 to 100 (0 no effect, 100 complete control), 13 to 15 days, read-out: Foxtail, Giant plant response rating) was 0%, the pest or weed control at 125 g/ha (giant foxtail; Setaria faberi, post-emergence, 125 g ai/ha, postemergence, read-out: Plant response rating (0 to 100), Foxtail, Giant) was 5% and the pest or weed control at 31 g/ha (giant foxtail; Setaria faberi, post-emergence, Postemergence, 31 g ai/ha, scale 0 to 100 (0 no effect, 100 complete control), 13 to 15 days, read-out: Plant response rating, Foxtail, Giant) was 5%. The pest or weed control at 62 g/ha (giant foxtail; Setaria faberi, post-emergence, Postemergence, 62 g ai/ha, scale 0 to 100 (0 no effect, 100 complete control), read-out: Plant response rating, Foxtail, Giant) was 5%, the pest or weed control at 125 g/ha (barnyardgrass [2]; Echinochloa crus-galli, post-emergence, 240 h, 125 g ai/ha, 0 to 100 scale where 0 is no effect and 100 is complete control, read-out: Plant response rating, Barnyardgrass) was 70% and the pest or weed control at 500 g/ha (barnyardgrass [2]; Echinochloa crus-galli, post-emergence, 240 h, 500 g ai/ha, 0 to 100 scale, 0 no effect, 100 complete control, read-out: Plant response rating Barnyardgrass) was 100%. For the same compound, the Soybean plant response rating (crop injury, 0-100 scale) at 125 g/ha (soybean; Glycine max, post-emergence, 125 g ai/ha, postemergence, read-out: Plant response rating (0 to 100), Soybean) was 80%, the Soybean plant response rating (crop injury, 0-100 scale) at 31 g/ha (soybean; Glycine max, post-emergence, Postemergence, 31 g ai/ha, scale 0 to 100 (0 no effect, 100 complete control), 13 to 15 days) was 60% and the Soybean plant response rating (crop injury, 0-100 scale) at 62 g/ha (soybean; Glycine max, post-emergence, Postemergence, 62 g ai/ha, scale 0 to 100 (0 no effect, 100 complete control)) was 75%. For the same compound, the Corn plant response rating (crop injury, 0 = no effect, 100 = complete kill) at 125 g/ha (corn; Zea mays, pre-emergence, 240 h, 125 g ai/ha, 0 to 100 scale where 0 is no effect and 100 is complete control) was 0% and the plant injury at 500 g/ha (corn; Zea mays, pre-emergence, 240 h, 500 g ai/ha, 0 to 100 scale, 0 no effect, 100 complete control, approx. 10 days, read-out: Corn plant response rating) was 40%.
In the case of `Fc1cnc(Oc2ccccc2-n2cc(C(F)F)cn2)nc1` [Compound 228], the “Plant response rating (0 to 100), Velvetleaf” value (velvetleaf; [3]) is reported as 15, the “Velvetleaf plant response rating” value (velvetleaf; [4]) is reported as 55 and the “Plant response rating, Velvetleaf” value (velvetleaf; [5]) is reported as 70. For the same compound, the “Plant response rating, Velvetleaf” value (velvetleaf; [6]) was 60, the “Plant response rating (0 to 100), Blackgrass” value (blackgrass; [3]) was 0 and the “Blackgrass plant response rating” value (blackgrass; [4]) was 0. The “Plant response rating, Blackgrass” value (blackgrass; [5]) was 40, the “Plant response rating, Blackgrass” value (blackgrass; [6]) was 0 and the “Plant response rating (0 to 100), Ragweed” value (ragweed; [3]) was 5. The “Ragweed plant response rating” value (ragweed; [4]) was 20, the “Plant response rating, Ragweed” value (ragweed; [5]) was 45 and the “Plant response rating, Ragweed” value (ragweed; [6]) was 55. The “Wheat plant response rating” value (wheat; 125 g ai/ha) was 0, the “Plant response rating, Wheat” value (wheat; 500 g ai/ha) was 70 and the “Plant response rating (0 to 100), Lambsquarters” value (lambsquarters; [3]) was 25. For the same compound, the “Lambsquarters plant response rating” value (lambsquarters; [4]) was 40, the “Plant response rating, Lambsquarters” value (lambsquarters; [5]) was 65 and the “Plant response rating, Lambsquarters” value (lambsquarters; [6]) was 75. The “Plant response rating (0 to 100), Galium” value (galium; [3]) was 50, the “Galium plant response rating” value (galium; [4]) was 50 and the “Plant response rating, Galium” value (galium; [5]) was 80. For the same compound, the “Plant response rating, Galium” value (galium; [6]) was 70, the “Barnyardgrass plant response rating (0 to 100 scale, 0 is no effect, 100 is complete control)” value (barnyardgrass [1]; 125 g ai/ha) was 20 and the “Barnyardgrass plant response rating” value (barnyardgrass [1]; [7]) was 100. For the same compound, the “Plant response rating (0 to 100), Foxtail, Giant” value (giant foxtail; [3]) was 0, the “Foxtail, Giant plant response rating” value (giant foxtail; [4]) was 0 and the “Plant response rating, Foxtail, Giant” value (giant foxtail; [5]) was 5. The “Plant response rating, Foxtail, Giant” value (giant foxtail; [6]) was 0, the “Barnyardgrass plant response rating” value (barnyardgrass [2]; 125 g ai/ha, 0 to 100 scale where 0 is no effect and 100 is complete control) was 10 and the “Plant response rating, Barnyardgrass” value (barnyardgrass [2]; [7]) was 90. For the same compound, the “Plant response rating (0 to 100), Soybean” value (soybean; [3]) was 25, the “Soybean plant response rating” value (soybean; [4]) was 35 and the “Plant response rating, Soybean” value (soybean; [5]) was 80. For the same compound, the “Plant response rating, Soybean” value (soybean; [6]) was 60, the “Corn plant response rating (0 to 100 scale)” value (corn; 125 g ai/ha) was 0 and the “Corn plant response rating” value (corn; [7]) was 40.
